Several values for one entry are separate records, joined by “and”; a condition that tells them apart may be missing. Identical values can stand only once.
What was measured:
DRG neurons = assay: Membrane depolarization and action potentials in DRG neurons (current clamp); format: cell-based, rat
Experimental: Primary DRG neuronal cultures were prepared from embryonic day 18 (E18) rat embryos. Adult pregnant rats were killed with an overdose of isoflurane. DRG were dissected and the cells were dissociated by triturating with a fire-polished glass pipette. Cells were cultured in Neurobasal medium (Life Technologies, Buffalo, N.Y., USA), supplemented with 10% fetal bovine serum (FBS), and grown on poly-D-lysine-coated glass coverslips. Cells were used from 5 to 15 days after plating. Small diameter (<30 μm) rounded neurons were selected for patch-clamp experiments. […] The Giga-seal patch-clamp technique was used to record whole-cell currents. For perforated-patch recordings, the bath solution contained (mM): sodium gluconate 140, KCl 2.5, Hepes 10, MgCl2 1 and ethylene glycol bis(2-aminoethyl ether)-N,N,N′N′-tetraacetic acid (EGTA) 1.5 (pH adjusted to 7.35 with NaOH), and the pipette solution contained (mM): sodium gluconate 130, NaCl 10, KCl 2.5, Hepes 10, MgCl2 1, EGTA 1.5 and 240 μg/ml^−1 amphotericin B (pH adjusted to 7.35 with NaOH). For current-clamp experiments the pipette solution contained (mM): potassium gluconate 130, NaCl 10, MgCl2 1, EGTA 0.2, K2ATP 1 and Hepes 10; pH adjusted to 7.35 with NaOH. Extracellular solution for current- and voltage-clamp experiments contained (mM): NaCl 140, KCl 4, MgCl2 1 and Hepes 10; pH adjusted to 7.35 with NaOH. Currents were recorded using a WPC 100 patch-clamp amplifier (E.S.F. Electronic, Goettingan, Germany). Data were filtered at 10 kHz, digitized (VR-10B, Instrutech Corp., Great Neck, N.Y., USA) and stored on videotapes or directly stored in the computer using a LabView interface. For analysis of whole-cell currents, data were filtered at 1 kHz (−3 db frequency with an 8-pole low-pass Bessel filter, Warner Instruments, LPF-8) and digitized at 2 kHz.
To attribute a physiological significance to the slow and irreversible action of RTX, we recorded membrane depolarization in current-clamp conditions. Action potentials in response to a current injection (10-100 pA) were recorded in order to confirm that the neurons were excitable (inset to FIGS. 9A and B). The average membrane potential was −57.1±1 mV (n=42).

cloned TRPV1 = target: T1, cloned TRPV1 (Rattus norvegicus, UniProt O35433); assay: Single-channel currents in excised (outside-out) patches from oocytes expressing cloned TRPV1; format: cell-based; conditions: for single-channel conductance / single-channel current amplitude: excised patches, cloned TRPV1; for Po: outside-out/excised patches, RTX, capsaicin 100 nM
T1 construct: expressed in transfected cells; host or cells: Xenopus laevis oocytes injected with TRPV1 cRNA
Experimental: Oocytes were obtained by an abdominal incision after anaesthetizing the frog by immersion in a 0.05% solution of 3-aminobenzoic acid ethyl ester (MS222). Animals were killed by a subcutaneous injection of a 2% solution of MS222 according to NIH guidelines. One day after separating the oocytes from the follicular layer, 50-70 nl TRPV1 cRNA was injected using a Drummond Nanoject (Drummond Scientific Co., Broomall, Pa., USA). Oocytes were used for recording from 3 days after the injection. Double-electrode voltage clamp was performed using a Warner amplifier (Warner Instruments, Hamden, Conn., USA). Data were digitized and stored on videotape or directly stored on the computer using a LabView interface (National Instruments, Austin, Tex., USA). Experiments were performed at 21-23° C. Oocytes were placed in a Perspex chamber superfused (5-10 ml min^−1) with Ca^2+-free Ringer solution containing (mM): NaCl 100, KCl 2.5 and Hepes 5; pH adjusted to 7.35 with NaOH. Current-voltage relationships were measured using 1-s voltage ramps from −80 to +80 mV.
For single-channel recording in cell-attached patches from DRG neurons, the bath solution contained (mM): potassium gluconate 140, KCl 2.5, MgCl2 1, Hepes 5 and EGTA 1.5; pH adjusted to 7.35 with NaOH. The patch pipettes were made from glass capillaries (Drummond, Microcaps), coated with Sylgard (Dow Corning, Midland, Mich., USA). For cell-attached patches, the patch pipettes were filled with a solution that contained (mM): sodium gluconate 140, NaCl 10, MgCl2 1, Hepes 5 and EGTA 1.5; pH adjusted to 7.35 with NaOH. While recording from cell-attached patches, in order to avoid differences in the driving force because of the differences in the membrane potential, the external NaCl was replaced by an equal amount of KCl in order to nullify the membrane potential. For outside-out patches, the pipette solution contained (mM): sodium gluconate 90, NaCl 10, BAPTA 10, Hepes 10, K2ATP2 and GTP 0.25; pH adjusted to 7.35 with NaOH. The bath solution contained (mM): sodium gluconate 100, KCl 2.5, MgCl2 1, Hepes 5 and EGTA 1.5; pH adjusted to 7.35 with NaOH. All the experiments were performed at room temperature (21-23° C.). Agar-bridge electrodes were used to avoid changes in junction potential. The currents were recorded using a WPC 100 (Warner Instruments) or Axopatch 2B (Axon Instruments, Union City, Calif., USA) patch-clamp amplifier. Data were filtered at 10 kHz (Axopatch 2B), digitized (VR-10B, Instrutech Corp.), and stored on videotapes. For the analysis of amplitude and open probability (Po), the data were filtered at 2.5 kHz (−3 db frequency with an 8-pole low-pass Bessel filter, Warner Instruments) and digitized at 5 kHz. For dwell-time analysis, the data were filtered at 10 kHz and digitized at 50 kHz.
Single-channel analysis. Single-channel current amplitude and Po were estimated from all-point current amplitude histograms (Channel 2 software kindly provided by Michael Smith, Australian National University, Can berra, Australia) and fitted to Gaussian densities (Origin, OriginLab Corp., Northampton, Mass., USA). For current-voltage relationships, the amplitudes were determined by fitting a Gaussian curve to an all-point histogram. Po was determined using unedited segments of data, which were typically 1-5 min long. For multiple channel patches, the mean Po was measured as nPo, where n is the number of channels in the patch. Chord conductance was measured at +60 or −60 mV. Slope conductance was determined by linear fits to current-voltage data between +20 and +100 mV or −20 and −100 mV.
Next we recorded single-channel currents from the cloned TRPV1 in excised patches. […] (Premkumar et al. 2002.)
Next we recorded single-channel currents using outside-out patches from oocytes expressing TRPV1.

[1] = oocytes expressing TRPV1, +60 mV

T1 sequence (O35433 whole entry): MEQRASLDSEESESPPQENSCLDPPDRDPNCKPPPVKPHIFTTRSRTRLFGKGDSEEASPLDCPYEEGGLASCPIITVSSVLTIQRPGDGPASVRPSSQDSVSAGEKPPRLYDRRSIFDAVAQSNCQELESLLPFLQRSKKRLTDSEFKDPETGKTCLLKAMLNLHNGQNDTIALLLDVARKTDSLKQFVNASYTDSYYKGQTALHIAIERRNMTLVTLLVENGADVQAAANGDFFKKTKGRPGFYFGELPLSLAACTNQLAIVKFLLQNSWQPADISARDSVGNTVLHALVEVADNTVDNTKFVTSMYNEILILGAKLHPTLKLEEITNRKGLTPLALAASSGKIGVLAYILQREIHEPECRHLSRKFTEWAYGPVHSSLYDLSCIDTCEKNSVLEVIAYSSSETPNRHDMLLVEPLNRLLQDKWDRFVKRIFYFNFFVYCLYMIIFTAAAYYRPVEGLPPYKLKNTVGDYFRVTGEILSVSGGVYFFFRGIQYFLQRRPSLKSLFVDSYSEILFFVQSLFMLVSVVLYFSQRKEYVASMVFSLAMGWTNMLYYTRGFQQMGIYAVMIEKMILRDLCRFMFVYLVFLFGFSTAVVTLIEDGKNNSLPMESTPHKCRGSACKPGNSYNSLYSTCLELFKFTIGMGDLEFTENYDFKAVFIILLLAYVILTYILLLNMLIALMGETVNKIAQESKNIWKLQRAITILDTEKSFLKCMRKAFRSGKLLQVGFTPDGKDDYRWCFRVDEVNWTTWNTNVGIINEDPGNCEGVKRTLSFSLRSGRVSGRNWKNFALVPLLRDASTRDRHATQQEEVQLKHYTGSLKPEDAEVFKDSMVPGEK

Structure (SMILES) | membrane depolarization (DRG neurons; capsaicin 30 nM) [mV] | number of action potentials (DRG neurons; capsaicin 30 nM) | single-channel conductance (cloned TRPV1; +60 mV) [pS] | single-channel current amplitude (cloned TRPV1; +60 mV) [pA] | Po (cloned TRPV1; +60 mV) | single-channel conductance (cloned TRPV1; −60 mV) [pS] | single-channel current amplitude (cloned TRPV1; −60 mV) [pA] | Po (cloned TRPV1; −60 mV) | membrane depolarization (DRG neurons; RTX 3 pM) [mV] | number of action potentials (DRG neurons; RTX 3 pM) | number of action potentials (DRG neurons; RTX 10 pM) | membrane depolarization (DRG neurons; RTX 10 nM) [mV] | number of action potentials (DRG neurons; RTX 10 nM) | membrane depolarization (DRG neurons; RTX 1 μM) [mV] | number of action potentials (DRG neurons; RTX 1 μM) | membrane depolarization (DRG neurons; RTX 10 μM (so in the source)) [mV] | membrane depolarization (DRG neurons; RTX 100 μM (so in the source)) [mV] | number of action potentials (DRG neurons; RTX ˜100 pM) | current amplitudes of multiple conductance states (cloned TRPV1; [1]) | single-channel conductance of multiple conductance states (cloned TRPV1; [1])
COc1cc(CNC(=O)CCCC/C=C/C(C)C)ccc1O [capsaicin] | 13.3±3.5 | 54.2±10.5 | 95.3±1.7 | 5.71±0.1 | 0.4±0.03 | 41.8±1.3 | 2.52±0.08 | 0.14±0.01 |  |  |  |  |  |  |  |  |  |  |  | 
C=C(C)[C@]12C[C@@H](C)[C@@]34O[C@](Cc5ccccc5)(O[C@@H]1[C@@H]3C=C(COC(=O)Cc1ccc(O)c(OC)c1)C[C@]1(O)C(=O)C(C)=C[C@@H]41)O2 [RTX, resiniferatoxin] |  |  | 103.3±0.83 | 6.19±0.05 | 0.88±0.03 | 43±2.8 | 2.59±0.17 | 0.83±0.05 | 10.6±1.6 | 16.6±8.3 | 24.6±6.9 | 32.2±5.1 | 24.5±8.6 | 52±2 | 14.6±4.6 | 14.1±1.5 | 16.3±3 | 77.8±11.8 | 3.5 pA and 5.3 pA and 6.9 pA | 58 pS and 88 pS and 115 pS

Source: patent US20090209633A1, “Treatment of Pain With Resiniferatoxin and Related Analogs” (priority 2006, published 2009)
